Source: US20170333515A1, “COMPOSITIONS AND METHODS FOR ENHANCING THE METABOLIC ACTIVITY OR STABILITY OF CURCUMIN” (priority 2015, published 2017)

Key:
[1] = Stability of curcumin in human liver microsomes in the absence and presence of 10 μM xanthohumol (Example 4)
Description: The objective of this study was to determine the stability of curcumin in human liver microsomes in the absence and presence of xanthohumol at a concentration of 10 μM, which is 10 fold higher than the previous study.
The objective of this study was to determine the stability of curcumin in human liver microsomes in the absence and presence of 10 μM xanthohumol.
(§1) Mixed-gender human liver microsomes (Lot #1210347) were purchased from XenoTech. The reaction mixture, minus cofactors, was prepared as described below. The test article was added into the reaction mixture at a final concentration of 1 μM. A second experiment was also performed with 10 μM xanthohumol also present in the reaction mixture. The control compounds, testosterone and 7-hydroxycoumarin (7-HC), were run simultaneously with the test article in separate reactions. An aliquot of the reaction mixture (without cofactors) was equilibrated in a shaking water bath at 37° C. for 3 minutes. The reaction was initiated by the addition of cofactors, and the mixture was incubated in a shaking water bath at 37° C. Aliquots (100 μL) were withdrawn at 0, 10, 20, 30, and 60 minutes for the test article and 0, 10, 30, and 60 minutes for testosterone and 7-HC. All samples were immediately combined with 400 μL of ice-cold 50/50 acetonitrile/H2O containing 0.1% formic acid and internal standard to terminate the reaction. The samples were then mixed and centrifuged to precipitate proteins. All samples were assayed by LC-MS/MS using electrospray ionization. Analytical conditions are outlined in Appendix 1. The peak area response ratio (PARR) to internal standard was compared to the PARR at time 0 to determine the percent remaining at each time point. Half-lives were calculated using GraphPad software, fitting to a single-phase exponential decay equation.

[2] = Stability of curcumin in human liver microsomes in the absence and presence of 1 μM xanthohumol (Example 3); settings: both
Description: The objective of this study was to determine the stability of curcumin in human liver microsomes in the absence and presence of xanthohumol at a concentration of 1 μM.
as §1, with “μM.” for “μM. A”, “with 1” for “with 10”

[3] = both, human, microsomes, Half-life

C[C@]12CC[C@H]3[C@@H](CCC4=CC(=O)CC[C@@]43C)[C@@H]1CC[C@@H]2O [Testosterone, testosterone]
microsomal CLint ([1]; both, human, microsomes): 57.7 µL/min/mg
half-life ([1]; control compounds, human liver microsomes, separate reactions, Example 4): 24 min
microsomal CLint [2]: 74 µL/min/mg

COc1cc(C=CC(=O)CC(=O)C=Cc2ccc(O)c(OC)c2)ccc1O [Curcumin, 1,7-Bis(4-hydroxy-3-methoxyphenyl)-1,6-heptadiene-3,5-dione]
half-life ([1]; both, human, microsomes, 1 μM): < 10 min
microsomal CLint at 1 μM ([1]; both, human, microsomes, CLint): > 139 µL/min/mg
microsomal CLint at 1 μM ([1]; both, human, microsomes, CLint (value in parentheses)): 296 µL/min/mg
half-life at 1 μM [1, 3]: < 10 min
half-life at 1 μM ([1]; both, human, microsomes, Half-life (value in parentheses)): 4.7 min
half-life at 1 μM ([2]; human, microsomes): 4.4 min
microsomal CLint at 1 μM ([2]; human, microsomes): 313 µL/min/mg

O=c1ccc2ccc(O)cc2o1 [7-HC, 7-hydroxycoumarin]
microsomal CLint ([1]; both, human, microsomes, CLint): 120 µL/min/mg
half-life [1, 3]: 12 min
half-life ([2]; human, microsomes): 10 min
microsomal CLint ([2]; human, microsomes): 136 µL/min/mg
